Entries after “also recorded” stand apart in the source; their conditions may differ.
Assays:
[1] = tested on: HIV-1 IIIB; experiment: HIV-1 infectivity assay against non-drug-resistant strain in H9 lymphocytes; format: cell-based; settings: for EC50: concentration that inhibits HIV-1IIIB replication by 50%: H9 lymphocytes, p24, day 6 PI; for anti-HIV activity in words: HIV-1 replication in H9 lymphocytes
[2] = tested on: uninfected H9 cells; experiment: Toxicity to mock-infected H9 cells; format: cell-based; settings: human, mock-infected (uninfected) H9 T-cells

| SMILES | EC50: concentration that inhibits HIV-1IIIB replication by 50% [1] | anti-HIV activity in words [1] | IC50 at 6 days [2] |
| --- | --- | --- | --- |
| Cc1cc(=O)oc2c3c(ccc12)S(=O)(=O)[C@H](C)[C@H](OC(=O)[C@]12CC[C@](C)(C(=O)O1)C2(C)C)[C@@H]3OC(=O)[C@]12CC[C@](C)(C(=O)O1)C2(C)C [Compound 12, (8R,9R,10R)-1′-Sulfone-2′,4-dimethyl-3′,4′-di-O-(−)-camphanoyl-(+)-cis-khellactone] | no suppression |  |  |
| Cc1cc(=O)oc2c3c(ccc12)S[C@H](C)[C@@H](OC(=O)[C@]12CC[C@](C)(C(=O)O1)C2(C)C)[C@H]3OC(=O)[C@]12CC[C@](C)(C(=O)O1)C2(C)C [Compound 7b, (2′R,3′S,4′S) -1′-Thia-2′,4-dimethyl-3′,4′-di-O-(−)-camphanoyl-(+)-cis-khellactone] | no suppression | inactivity |  |
| Cc1cc(=O)oc2c3c(ccc12)O[C@H](C)[C@H](OC(=O)[C@]12CC[C@](C)(C(=O)O1)C2(C)C)[C@@H]3OC(=O)[C@]12CC[C@](C)(C(=O)O1)C2(C)C [Compound 6, (2′R,3′S,4′R)-2′,4-Dimethyl-3′,4′-di-O-(−)-camphanoyl-(+)-cis-khellactone] | no suppression | inactive at the test concentrations; also recorded: much weaker inhibitory activity |  |
| Cc1cc(=O)oc2c3c(ccc12)OC(C)(C)[C@H](OC(=O)[C@]12CC[C@](C)(C(=O)O1)C2(C)C)[C@@H]3OC(=O)[C@]12CC[C@](C)(C(=O)O1)C2(C)C [Compound 2] |  |  | > 39.2 µM |
| Cc1cc(=O)oc2c3c(ccc12)S[C@H](C)[C@H](OC(=O)[C@]12CC[C@](C)(C(=O)O1)C2(C)C)[C@@H]3OC(=O)[C@]12CC[C@](C)(C(=O)O1)C2(C)C [Compound 8, (2′R,3′R,4′R)-1′-Thia-2′,4-Dimethyl-3′,4′-di-O-(−)-camphanoyl-(+)-cis-khellactone] |  | much weaker inhibitory activity |  |
| Cc1cc(=O)oc2c3c(ccc12)[S+]([O-])[C@@H](C)C(OC(=O)C12CCC(C)(C(=O)O1)C2(C)C)C3OC(=O)C12CCC(C)(C(=O)O1)C2(C)C (stereo partly drawn) [9a+9b, 1′-Sulfoxide-2′,4-dimethyl-3′,4′-di-O-(−)-camphanoyl-(+)-cis-khellactone] | no suppression |  |  |
| Cc1cc(=O)oc2c3c(ccc12)O[C@H](C)[C@@H](OC(=O)[C@]12CC[C@](C)(C(=O)O1)C2(C)C)[C@H]3OC(=O)[C@]12CC[C@](C)(C(=O)O1)C2(C)C [Compound 5b, (2′R,3′R,4′S)-2′,4-Dimethyl-3′,4′-di-O-(−)-camphanoyl-(+)-cis-khellactone] |  | low potency |  |
